Reference: patent US8461107B2 (Merck Sharp & Dohme Corp., priority 2008, dated 2013)

The compounds below were run against T1, HCV genotype 1b (BK) NS3 modified with a R155K mutation (Hepatitis C virus genotype 1b, UniProt P26663, R1181K) (assay: HCV NS3 protease time-resolved fluorescence (TRF) assay, NS3 protease 1b R155K Ki activity). Settings: HCV genotype 1b (BK) NS3 with R155K mutation; TRF peptide substrate 100 nM; Ki derived from IC50.
T1 construct: HCV genotype 1b (BK) NS3 modified with a R155K mutation
Format: biochemical
Protocol: The HCV NS3 protease inhibitory activity of the present compounds may be tested using assays known in the art. One such assay is HCV NS3 protease time-resolved fluorescence (TRF) assay as described below and in International Patent Application Publication WO 2006/102087. Other examples of such assays are described in e.g., International Patent Application Publication WO 2005/046712.
A NS3 protease assay can be performed, for example, in a final volume of 100 μl assay buffer containing 50 mM HEPES, pH 7.5, 150 mM NaCl, 15% glycerol, 0.15% TRITON X-100, 10 mM DTT, and 0.1% PEG 8000. NS3 and NS4A protease is pre-incubated with various concentrations of inhibitors in DMSO for 30 minutes. The reaction is initiated by adding the TRF peptide substrate (final concentration 100 nM). NS3 mediated hydrolysis of the substrate is quenched after 1 hour at room temperature with 100 μl of 500 mM MES, pH 5.5. Product fluorescence is detected using either a VICTOR V2 or FUSION fluorophotometer (Perkin Elmer Life and Analytical Sciences) with excitation at 340 nm and emission at 615 nm with a 400 μs delay. Testing concentrations of different enzyme forms are selected to result in a signal to background ratio (S/B) of 10-30. IC50 values are derived using a standard four-parameter fit to the data. Ki values are derived from IC50 values using the following formula, IC50=Ki(1+[S]/KM), Eqn (1), where [S] is the concentration of substrate peptide in the reaction and KM is the Michaelis constant. See P. Gallinari et al., 38 BIOCHEM. 5620-32 (1999); P. Gallinari et al., 72 J. VIROL. 6758-69 (1998); M. Taliani et al., 240 ANAL. BIOCHEM. 60-67 (1996).
The HCV NS3 protease inhibitory activity was measured using the protease time-resolved fluorescence (TRF) assay as described below and in International Patent Application Publication WO 2006/102087. The assay was performed with HCV genotype 1b (BK) NS3 modified with a R155K mutation.
The assay was performed in a final volume of 100 μl in assay buffer containing 50 mM HEPES, pH 7.5, 150 mM NaCl, 15% glycerol, 0.15% TRITON X-100, 10 mM DTT, and 0.1% PEG 8000. NS3 and NS4A protease is pre-incubated with various concentrations of inhibitors in DMSO for 30 minutes. The reaction is initiated by adding the TRF peptide substrate (final concentration 100 nM). NS3 mediated hydrolysis of the substrate is quenched after 1 hour at room temperature with 100 μl of 500 mM MES, pH 5.5. Product fluorescence is detected using either a VICTOR V2 or FUSION fluorophotometer (Perkin Elmer Life and Analytical Sciences) with excitation at 340 nm and emission at 615 nm with a 400 μs delay. Testing concentrations of the enzyme containing the R155K mutation were selected to result in a signal to background ratio (S/B) of 10-30. IC50 values are derived using a standard four-parameter fit to the data. Ki values are derived from IC50 values using the following formula, IC50=Ki(1+[S]/KM), Eqn (1), where [S] is the concentration of substrate peptide in the reaction and KM is the Michaelis constant. See P. Gallinari et al., 38 BIOCHEM. 5620-32 (1999); P. Gallinari et al., 72 J. VIROL. 6758-69 (1998); M. Taliani et al., 240 ANAL. BIOCHEM. 60-67 (1996).

Row | SMILES | Ki [nM]
1 | C=C[C@@H]1C[C@]1(NC(=O)[C@@H]1C[C@@H]2CN1C(=O)[C@H](C1CCCC1)NC(=O)O[C@@H]1CCC[C@H]1CC/C=C/Cn1c(nc3cc(S(C)(=O)=O)ccc3c1=O)O2)C(=O)NS(=O)(=O)C1CC1 [(3aR,7S,10S,12R,22E,25aS)-7-cyclopentyl-N-((1R,2S)-1-{[(cyclopropylsulfonyl)amino]carbonyl}-2-vinylcyclopropyl)-16-(methylsulfonyl)-5,8,19-trioxo-1,2,3,3a,5,6,7,8,11,12,21,24,25,25a-tetradecahydro-10H,19H-9,12-methanocyclopenta[18,19][1,10,3,6,12]dioxatriazacyclononadecino[11,12-b]quinazoline-10-carboxamide] | < 0.1
2 | C=C[C@@H]1C[C@]1(NC(=O)[C@@H]1C[C@@H]2CN1C(=O)[C@H](C1CCCC1)NC(=O)O[C@@H]1CCC[C@H]1CC/C=C/Cn1c(nc3cc(OC)ccc3c1=O)O2)C(=O)NS(=O)(=O)C1CC1 [(3aR,7S,10S,12R,22E,25aS)-7-cyclopentyl-N-((1R,2S)-1-{[(cyclopropylsulfonyl)amino]carbonyl}-2-vinylcyclopropyl)-16-methoxy-5,8,19-trioxo-1,2,3,3a,5,6,7,8,11,12,21,24,25,25a-tetradecahydro-10H,19H-9,12-methanocyclopenta[18,19][1,10,3,6,12]dioxatriazacyclononadecino[11,12-b]quinazoline-10-carboxamide] | < 0.1
3 | C=C[C@@H]1C[C@]1(NC(=O)[C@@H]1C[C@@H]2CN1C(=O)[C@H](C1CCCC1)NC(=O)O[C@@H]1CCC[C@H]1CC/C=C/Cn1c(nc3cccc(OC)c3c1=O)O2)C(=O)NS(=O)(=O)C1CC1 [(3aR,7S,10S,12R,22E,25aS)-7-cyclopentyl-N-((1R,2S)-1-{[(cyclopropylsulfonyl)amino]carbonyl}-2-vinylcyclopropyl)-18-methoxy-5,8,19-trioxo-1,2,3,3a,5,6,7,8,11,12,21,24,25,25a-tetradecahydro-10H,19H-9,12-methanocyclopenta[18,19][1,10,3,6,12]dioxatriazacyclononadecino[11,12-b]quinazoline-10-carboxamide] | < 0.1
4 | CC[C@@H]1C[C@]1(NC(=O)[C@@H]1C[C@@H]2CN1C(=O)[C@H](C1CCCC1)NC(=O)O[C@@H]1CCC[C@H]1CC/C=C/Cn1c(nc3cc(Br)ccc3c1=O)O2)C(=O)NS(=O)(=O)C1CC1 [(3aR,7S,10S,12R,22E,25aS)-16-bromo-7-cyclopentyl-N-((1R,2R)-1-{[(cyclopropylsulfonyl)amino]carbonyl}-2-ethylcyclopropyl)-5,8,19-trioxo-1,2,3,3a,5,6,7,8,11,12,21,24,25,25a-tetradecahydro-10H,19H-9,12-methanocyclopenta[18,19][1,10,3,6,12]dioxatriazacyclononadecino[11,12-b]quinazoline-10-carboxamide] | 0.1 to 0.5
5 | CC[C@@H]1C[C@]1(NC(=O)[C@@H]1C[C@@H]2CN1C(=O)[C@H](C1CCCC1)NC(=O)O[C@@H]1CCC[C@H]1CC/C=C/Cn1c(nc3cc(Cl)ccc3c1=O)O2)C(=O)NS(=O)(=O)C1CC1 [(3aR,7S,10S,12R,22E,25aS)-16-chloro-7-cyclopentyl-N-((1R,2R)-1-{[(cyclopropylsulfonyl)amino]carbonyl}-2-ethylcyclopropyl)-5,8,19-trioxo-1,2,3,3a,5,6,7,8,11,12,21,24,25,25a-tetradecahydro-10H,19H-9,12-methanocyclopenta[18,19][1,10,3,6,12]dioxatriazacyclononadecino[11,12-b]quinazoline-10-carboxamide] | 0.1 to 0.5
6 | C=C[C@@H]1C[C@]1(NC(=O)[C@@H]1C[C@@H]2CN1C(=O)[C@H](C1CCCC1)NC(=O)O[C@@H]1CCC[C@H]1CC/C=C/Cn1c(nc3cc(Cl)ccc3c1=O)O2)C(=O)NS(=O)(=O)C1CC1 [(3aR,7S,10S,12R,22E,25aS)-16-chloro-7-cyclopentyl-N-((1R,2S)-1-{[(cyclopropylsulfonyl)amino]carbonyl}-2-vinylcyclopropyl)-5,8,19-trioxo-1,2,3,3a,5,6,7,8,11,12,21,24,25,25a-tetradecahydro-10H,19H-9,12-methanocyclopenta[18,19][1,10,3,6,12]dioxatriazacyclononadecino[11,12-b]quinazoline-10-carboxamide] | < 0.1
